Test results from ChEMBL document CHEMBL3044672, “N9- and N7-(Chloromethyl Phenymethyl)Chloropurine Derivatives from , '-Dichloroxylenes: Synthesis and Anticancer Activity” (2005).

How the values were obtained:
Format in all cases: functional
[1] = system: K562; test: Cytotoxicity against Homo sapiens (human) K562 cells after 48 hr by sulforhodamine B assay; details: K562, 48 h
[2] = system: OVCAR-8; test: Cytotoxicity against Homo sapiens (human) OVCAR8 cells after 48 hr by sulforhodamine B assay; details: OVCAR-8, 48 h
[3] = system: M14; test: Cytotoxicity against Homo sapiens (human) M14 cells after 48 hr by sulforhodamine B assay; details: M14, 48 h
[4] = system: NCI-H522; test: Cytotoxicity against Homo sapiens (human) NCI-H522 cells after 48 hr by sulforhodamine B assay; details: NCI-H522, 48 h
[5] = system: SNB-19; test: Cytotoxicity against Homo sapiens (human) SNB19 cells after 48 hr by sulforhodamine B assay; details: SNB-19, 48 h
[6] = system: A498; test: Cytotoxicity against Homo sapiens (human) A498 cells after 48 hr by sulforhodamine B assay; details: A498, 48 h
[7] = system: SF-539; test: Cytotoxicity against Homo sapiens (human) SF539 cells after 48 hr by sulforhodamine B assay; details: SF-539, 48 h
[8] = system: SN12C; test: Cytotoxicity against Homo sapiens (human) SN12C cells after 48 hr by sulforhodamine B assay
[9] = system: SF-268; test: Cytotoxicity against Homo sapiens (human) SF268 cells after 48 hr by sulforhodamine B assay; details: SF-268, 48 h
[10] = system: CAKI-1; test: Cytotoxicity against Homo sapiens (human) Caki1 cells after 48 hr by sulforhodamine B assay; details: CAKI-1, 48 h
[11] = system: NCI-H23; test: Cytotoxicity against Homo sapiens (human) NCI-H23 cells after 48 hr by sulforhodamine B assay; details: NCI-H23, 48 h
[12] = system: A549; test: Cytotoxicity against Homo sapiens (human) A549 cells after 48 hr by sulforhodamine B assay; details: A549, 48 h
[13] = system: LOX IMVI; test: Cytotoxicity against Homo sapiens (human) LOXIMVI cells after 48 hr by sulforhodamine B assay
[14] = system: SK-MEL-28; test: Cytotoxicity against Homo sapiens (human) SK-MEL-28 cells after 48 hr by sulforhodamine B assay; details: SK-MEL-28, 48 h
[15] = Cytotoxicity against Homo sapiens (human) NCI-ADR-RES cells after 48 hr by sulforhodamine B assay
[16] = system: NCI-H460; test: Cytotoxicity against Homo sapiens (human) NCI-H460 cells assessed as cell growth at 10^-4 M after 48 hr by Alamar blue assay; details: NCI-H460, 48 h, read-out: Activity
[17] = system: U-251; test: Cytotoxicity against Homo sapiens (human) U251 cells after 48 hr by sulforhodamine B assay; details: U-251, 48 h
[18] = system: HCT-15; test: Cytotoxicity against Homo sapiens (human) HCT15 cells after 48 hr by sulforhodamine B assay; details: HCT-15, 48 h
[19] = system: CCRF-CEM; test: Cytotoxicity against Homo sapiens (human) CCRF-CEM cells after 48 hr by sulforhodamine B assay
[20] = system: UACC-62; test: Cytotoxicity against Homo sapiens (human) UACC62 cells after 48 hr by sulforhodamine B assay; details: UACC-62, 48 h
[21] = system: NCI-H226; test: Cytotoxicity against Homo sapiens (human) NCI-H226 cells after 48 hr by sulforhodamine B assay; details: NCI-H226, 48 h
[22] = system: 786-0; test: Cytotoxicity against Homo sapiens (human) 786-0 cells after 48 hr by sulforhodamine B assay; details: 786-0, 48 h
[23] = system: UACC-257; test: Cytotoxicity against Homo sapiens (human) UACC257 cells after 48 hr by sulforhodamine B assay; details: UACC-257, 48 h
[24] = system: BT-549; test: Cytotoxicity against Homo sapiens (human) BT549 cells after 48 hr by sulforhodamine B assay; details: BT-549, 48 h
[25] = system: MCF7; test: Cytotoxicity against Homo sapiens (human) MCF7 cells assessed as cell growth at 10^-4 M after 48 hr by Alamar blue assay; details: MCF7, 48 h, read-out: Activity
[26] = system: UO-31; test: Cytotoxicity against Homo sapiens (human) UO31 cells after 48 hr by sulforhodamine B assay; details: UO-31, 48 h
[27] = system: ACHN; test: Cytotoxicity against Homo sapiens (human) ACHN cells after 48 hr by sulforhodamine B assay
[28] = read-out: LC50 (the source's name)

Question: For ClCc1ccc(Cn2cnc3c(Cl)nc(Cl)nc32)cc1, which GI50 [1] is on record?
Answer: The GI50 was 23.4 µM.

Question: And the TGI [1]?
Answer: The TGI was 66.1 µM.

Question: What about the CC50 [1, 28] of the same compound?
Answer: Its CC50 is > 100 µM.

Question: And the GI50 [2]?
Answer: The GI50 was 19.9 µM.

Question: And the LC50 (concentration killing 50% of cells) [2]?
Answer: The LC50 (concentration killing 50% of cells) was 72.4 µM.

Question: What about the TGI [2] of the same compound?
Answer: Its TGI is 38 µM.

Question: And the GI50 [3]?
Answer: The GI50 was 10.7 µM.

Question: And the LC50 [3]?
Answer: Its LC50 is 53.7 µM.

Question: What about the TGI [3] of the same compound?
Answer: Its TGI is 24 µM.

Question: What about the GI50 [4] of the same compound?
Answer: Its GI50 is 22.4 µM.

Question: What about the TGI [4] of the same compound?
Answer: The TGI was 46.8 µM.

Question: And the CC50 [4, 28]?
Answer: Its CC50 is 97.7 µM.

Question: And the GI50 [5]?
Answer: The GI50 was 2.51 µM.

Question: What about the LC50 [5] of the same compound?
Answer: Its LC50 is > 100 µM.

Question: And the TGI [5]?
Answer: The TGI was 7.08 µM.

Question: And the GI50 [6]?
Answer: The GI50 was 12 µM.

Question: What about the LC50 (lethal concentration, 50% cell kill) [6] of the same compound?
Answer: The LC50 (lethal concentration, 50% cell kill) was 52.5 µM.

Question: What about the TGI [6] of the same compound?
Answer: Its TGI is 25.1 µM.

Question: What about the GI50 [7] of the same compound?
Answer: Its GI50 is 17 µM.

Question: What about the LC50 (concentration killing 50% of cells) [7] of the same compound?
Answer: Its LC50 (concentration killing 50% of cells) is 56.2 µM.

Question: And the TGI [7]?
Answer: The TGI was 30.9 µM.

Question: And the GI50 [8]?
Answer: Its GI50 is 7.24 µM.

Question: And the LC50 (50% lethal concentration) [8]?
Answer: The LC50 (50% lethal concentration) was 51.3 µM.

Question: What about the TGI [8] of the same compound?
Answer: Its TGI is 20.9 µM.

Question: And the GI50 [9]?
Answer: Its GI50 is 2.51 µM.

Question: And the TGI [9]?
Answer: The TGI was 5.37 µM.

Question: What about the CC50 [9, 28] of the same compound?
Answer: The CC50 was 42.7 µM.

Question: What about the GI50 [10] of the same compound?
Answer: Its GI50 is 9.12 µM.

Question: What about the TGI [10] of the same compound?
Answer: Its TGI is 21.4 µM.

Question: What about the CC50 [10, 28] of the same compound?
Answer: The CC50 was 46.8 µM.

Question: And the GI50 [11]?
Answer: Its GI50 is 7.59 µM.

Question: What about the TGI [11] of the same compound?
Answer: The TGI was 23.4 µM.

Question: And the CC50 [11, 28]?
Answer: The CC50 was 58.9 µM.

Question: What about the GI50 [12] of the same compound?
Answer: The GI50 was 18.6 µM.

Question: And the TGI [12]?
Answer: The TGI was 37.1 µM.

Question: What about the CC50 [12, 28] of the same compound?
Answer: The CC50 was 74.1 µM.

Question: And the GI50 [13]?
Answer: Its GI50 is 2.04 µM.

Question: And the LC50 [13]?
Answer: Its LC50 is 8.32 µM.

Question: And the TGI [13]?
Answer: Its TGI is 4.17 µM.

Question: And the GI50 [14]?
Answer: The GI50 was 2.69 µM.

Question: What about the LC50 (concentration killing 50% of cells) [14] of the same compound?
Answer: The LC50 (concentration killing 50% of cells) was 46.8 µM.

Question: What about the TGI [14] of the same compound?
Answer: The TGI was 6.92 µM.

Question: What about the GI50 [15] of the same compound?
Answer: The GI50 was 16.6 µM.

Question: And the LC50 (concentration killing 50% of cells) [15]?
Answer: The LC50 (concentration killing 50% of cells) was > 100 µM.

Question: And the TGI [15]?
Answer: Its TGI is > 100 µM.

Question: And the growth at 100 µM [16]?
Answer: Its growth at 100 µM is 0%.

Question: And the GI50 [17]?
Answer: The GI50 was 2.04 µM.

Question: And the LC50 (concentration killing 50% of cells) [17]?
Answer: Its LC50 (concentration killing 50% of cells) is 7.41 µM.

Question: What about the TGI [17] of the same compound?
Answer: The TGI was 3.89 µM.

Question: What about the GI50 [18] of the same compound?
Answer: Its GI50 is 1.86 µM.

Question: And the TGI [18]?
Answer: Its TGI is 3.8 µM.

Question: What about the CC50 [18, 28] of the same compound?
Answer: The CC50 was 7.59 µM.

Question: What about the GI50 [19] of the same compound?
Answer: The GI50 was 1.95 µM.

Question: What about the TGI [19] of the same compound?
Answer: Its TGI is 4.57 µM.

Question: And the CC50 [19, 28]?
Answer: The CC50 was 14.1 µM.

Question: What about the GI50 [20] of the same compound?
Answer: The GI50 was 2.04 µM.

Question: What about the LC50 (concentration causing 50% net cell kill) [20] of the same compound?
Answer: The LC50 (concentration causing 50% net cell kill) was 9.33 µM.

Question: And the TGI [20]?
Answer: Its TGI is 4.37 µM.

Question: And the GI50 [21]?
Answer: The GI50 was 3.55 µM.

Question: And the TGI [21]?
Answer: The TGI was 9.55 µM.

Question: What about the CC50 [21, 28] of the same compound?
Answer: Its CC50 is 33.9 µM.

Question: And the GI50 [22]?
Answer: Its GI50 is 14.1 µM.

Question: What about the LC50 [22] of the same compound?
Answer: The LC50 was 61.7 µM.

Question: And the TGI [22]?
Answer: Its TGI is 29.5 µM.

Question: And the GI50 [23]?
Answer: The GI50 was 16.2 µM.

Question: What about the LC50 (concentration killing 50% of cells) [23] of the same compound?
Answer: Its LC50 (concentration killing 50% of cells) is 69.2 µM.

Question: And the TGI [23]?
Answer: Its TGI is 33.1 µM.

Question: And the GI50 [24]?
Answer: Its GI50 is 15.8 µM.

Question: And the LC50 (50% lethal concentration) [24]?
Answer: Its LC50 (50% lethal concentration) is 56.2 µM.

Question: What about the TGI [24] of the same compound?
Answer: The TGI was 29.5 µM.

Question: And the growth at 100 µM [25]?
Answer: The growth at 100 µM was 0%.

Question: And the GI50 [26]?
Answer: Its GI50 is 19.5 µM.

Question: And the LC50 (concentration causing 50% net cell kill) [26]?
Answer: The LC50 (concentration causing 50% net cell kill) was 66.1 µM.

Question: And the TGI [26]?
Answer: The TGI was 35.5 µM.

Question: And the GI50 [27]?
Answer: Its GI50 is 2.34 µM.

Question: What about the TGI [27] of the same compound?
Answer: The TGI was 5.25 µM.

Question: And the CC50 [27, 28]?
Answer: Its CC50 is 14.8 µM.
